Measurements from paper PMC6244536, “In Vivo Stabilized SB3, an Attractive GRPR Antagonist, for Pre- and Intra-Operative Imaging for Prostate Cancer” (Molecular Imaging and Biology, 2018).
Where two headings read alike, the source gives them in different places.

Legend:
human GRPR = human GRPR (Homo sapiens, UniProt P30550); experiment: biochemical
Protocol: (§1) All statistical evaluations were performed with GraphPad Prism software (version 5.01). The IC50 value was calculated using a log (inhibitor) vs response model. To compare in vivo stability −/+ PA, radioactivity uptake in the tumor −/+ PA and radioactivity uptake in the tumor without and with an excess of unlabeled peptide an unpaired t test was used. P values < 0.05 were considered statistically significant. Tumor to organ uptake ratios were calculated per animal and expressed as mean and standard deviation per group.

[1] = pre-clinical studies of PA combined with radiotracers; cited from earlier work
From the text: For application in patients, NEP inhibitors that are already approved for clinical use such as Sacubitril and Racecadotril might be applied.

[2] = Indium-111 labeled; cited from earlier work
From the text: Preclinical as well as clinical PET imaging studies using [^68Ga]SB3 have been performed with great success. […] To increase the in vivo stability of radiopeptides, multiple solutions are available, including structural modifications of a peptide or the novel approach of inhibition of enzymes responsible for enzymatic degradation. Since structural modifications are time consuming, and ...

[3] = test system: PC-3 tumor xenografts (GRPR-expressing); settings: 1 h p.i.; for tumor ROI signal intensity on SPECT: 25 MBq/200 pmol i.v.
Protocol: For SPECT/MRI, PC-3-xenografted mice were intravenously injected with 25 MBq/200 pmol [^111In]SB3, co-injected with either 300 μg/100 μl PA in 0.5 % ethanol or 100 μl saline solution. Subsequently, imaging was performed 1, 4, and 24 h p.i. of the radiotracer, while animals were anesthetized using isoflurane/O2, body temperature was maintained using warm air flow, and respiratory rate was monitored. Whole-body SPECT images were acquired using the novel and state-of-the-art four-head multipinhole system (NanoScan SPECT/MRI, Mediso Medical Imaging) in 30 min (28 projections, 29 s/projection, and 7-cm axial field of view). Images were reconstructed using OSEM with six iterations and four subsets on a 120 × 120 matrix with 0.25 × 0.25 × 0.25-mm isotropic voxels. MR-based attenuation correction was applied to all images. T2 MR images were acquired using a spin echo sequence (TR/TE = 4500/52 ms) with a 35-mm-diameter solenoid coil. Other scan parameters were field of view 70 mm, matrix 256 × 128, and slice thickness 1 mm with 0.1-mm spacing between slices. An ROI of the tumor was drawn by an experienced technician on the T2-weighted MR image to measure the intensity in the SPECT image.

[4] = healthy mice, blood 5 min p.i., radio-HPLC, mean ± SD; for intact radiotracer, % of remaining circulating activity in blood: 200 pmol/25 MBq i.v.; for intact radiotracer in blood: 2000 pmol/25 MBq i.v.
Protocol: To determine the stability of [^111In]SB3 −/+ PA in vivo, healthy mice (n = 3 per group) were intravenously injected with 200 pmol/25 MBq or 2000 pmol/25 MBq [^111In]SB3 (volume 100 μl), co-injected with either 300 μg/100 μl PA (Peptides International Inc.) in 0.5 % ethanol or 100 μl saline solution. Five minutes after injection of [^111In]SB3 −/+ PA, blood (0.5–1 ml) was collected by cardiac puncture, while animals were under isoflurane/O2 anesthesia, and transferred to blood-collection tubes containing 90 USP units of lithium heparin (spray coated), HPLC grade ethanol was added in a 1:1 (v/v) ratio, and the tubes were placed on ice. Blood samples were centrifuged 5 min at 1250g, and supernatant was collected. Next, the collected supernatant was centrifuged again for 5 min at 12,500g. The secondary supernatant was collected and diluted with MilliQ down to < 25 % ethanol before injection on HPLC. The samples were analyzed by HPLC (Alliance, Waters) including a Symmetry C18 column (5 μm × 4.6 mm × 250 mm). Elution was performed in a 1-ml/min flow, completed in 30 min, with the gradient 0–5 min 100 % A, 5–5.01 min 40 % A 60 % B, 5.01–20 min 20 % A 80 % B, 20–20.01 min 100 % B, 20.01–25 min 100 % B, and 25.01–30 min 100 % A, where A was 0.1 % TFA in H2O and B was methanol.

in vivo = settings: male, Balb c nu/nu, mouse, iv, total radioactivity
Protocol: (§2) Healthy or xenografted Balb c nu/nu male mice (Janvier) were used in this study. To obtain xenografted mice, animals were injected subcutaneously in the right shoulder with PC-3, 3 × 10^6 cells in Matrigel (total volume 150 μl, solution 66 % RPMI, 33 % Matrigel) per animal. Prior to tumor cell inoculation, the PC-3 cells were cultured in RPMI medium supplemented with 10 % fetal bovine serum, 5000 IU/ml penicillin, and 5000 μg/ml streptomycin at 37 °C in a humidified atmosphere containing 5 % CO2. PC295 is an androgen-dependent, patient-derived cell line with high GRPR expression. Xenografts were generated by subcutaneous implantation of the PC295 human prostate tumor as previously described and were stored at − 80 °C until further use. All culture supplies were purchased at Gibco.
(§3) Tumor-bearing mice received an intravenous injection of 200 pmol/2.5 MBq [^111In]SB3, co-injected with either 300 μg/100 μl PA in 0.5 % ethanol or 100 μl saline solution (n = 4 animals per group for each time point). […] To determine specificity of tumor and organ uptake, blocking experiments were performed; an additional group of animals (n = 3) was pre-injected with an excess (20 nmol) of unlabeled SB3 followed by injection of the radiotracer −/+ PA. At three different time points p.i. (1, 4, and 24 h), animals were euthanized and blood, organs, and tumors were collected, weighed, and measured in a γ-counter (1480 WIZARD automatic γ-counter, PerkinElmer). For γ-counter measurements, an isotope specific energy window, a counting time of 60 s, and a counting error ≤ 5 % were used. Results were expressed as the percentage of the injected dose per gram tissue (% ID/g tissue). Animals that had ≥ 7 % ID in the tail were excluded.
as §1

[5] = test system: PC-3 tumor xenografts (GRPR-expressing); experiment: in vivo; settings: mouse
Protocol: as §2, §3, §1

[6] = co-injected with 300 μg PA, n = 3

human GRPR, sequence (P30550 whole entry): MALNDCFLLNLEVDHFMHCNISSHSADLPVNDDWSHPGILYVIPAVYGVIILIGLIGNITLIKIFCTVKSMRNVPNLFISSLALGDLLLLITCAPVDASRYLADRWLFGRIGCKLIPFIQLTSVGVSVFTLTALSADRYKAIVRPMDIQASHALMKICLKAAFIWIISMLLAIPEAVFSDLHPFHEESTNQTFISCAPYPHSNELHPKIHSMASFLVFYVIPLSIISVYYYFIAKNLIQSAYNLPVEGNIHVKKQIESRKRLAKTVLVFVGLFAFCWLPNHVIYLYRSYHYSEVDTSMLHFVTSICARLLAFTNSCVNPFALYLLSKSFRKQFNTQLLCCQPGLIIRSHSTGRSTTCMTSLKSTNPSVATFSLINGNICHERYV

`CCNC(=O)[C@H](CC(C)C)NC(=O)[C@H](Cc1c[nH]cn1)NC(=O)CNC(=O)[C@@H](NC(=O)[C@H](C)NC(=O)[C@H](Cc1c[nH]c2ccccc12)NC(=O)[C@H](CCC(N)=O)NC(=O)[C@@H](Cc1ccccc1)NC(=O)COCC(=O)Nc1ccc(CNC(=O)CN2CCN(CC(=O)O)CCN(CC(=O)O)CCN(CC(=O)O)CC2)cc1)C(C)C` [SB3, Sarabesin 3] gave an IC50 (human GRPR) of 3.5 nM.

For `CC(C)C[C@H](NP(=O)(O)O[C@@H]1O[C@@H](C)[C@H](O)[C@@H](O)[C@H]1O)C(=O)N[C@@H](Cc1c[nH]c2ccccc12)C(=O)O` [PA, phosphoramidon], the adverse events [1] is given as “have not indicated any adverse events”.

In the case of `CCNC(=O)[C@H](CC(C)C)NC(=O)[C@H](Cc1c[nH]cn1)NC(=O)CNC(=O)[C@@H](NC(=O)[C@H](C)NC(=O)[C@H](Cc1c[nH]c2ccccc12)NC(=O)[C@H](CCC(N)=O)NC(=O)[C@@H](Cc1ccccc1)NC(=O)COCC(=O)Nc1ccc(CNC(=O)CN2CCN(CC(=O)O)CCN(CC(=O)O)CCN(CC(=O)O)CC2)cc1)C(C)C` [[^111In]SB3, metal not drawn], the in vivo stability [2] is given as “poor in vivo stability”, the “tumor ROI signal intensity on SPECT” value ([3]; with 300 μg PA) is given as 2434 kBq/ml and the “tumor ROI signal intensity on SPECT” value ([3]; without PA) is given as 1424 kBq/ml. The “increase in tumor signal intensity with PA vs without PA” value ([3]; ROI analysis, 25 MBq/200 pmol) was 70%, the “intact radiotracer, % of remaining circulating activity in blood” value [4, 6] was 86.7 ± 1.5% and the “intact radiotracer, % of remaining circulating activity in blood” value ([4]; without PA, n = 3) was 37.3 ± 2.5%. For the same compound, the “intact radiotracer in blood” value [4, 6] was 87.9 ± 1.1%, the “intact radiotracer in blood” value ([4]; without PA, one animal excluded) was 42.0 ± 0.2% and the tissue uptake at 1 h (in vivo; 200 pmol, pancreatic uptake) was 4.1 ± 2.3 %ID/g. The tissue uptake at 1 h (in vivo; 200 pmol, renal uptake) was 3.9 ± 1.4 %ID/g, the tissue to tissue ratio at 1 h (in vivo; 200 pmol, tumor to kidney ratio) was 2.8 ± 1 and the tissue to tissue ratio at 1 h (in vivo; 200 pmol, tumor to pancreas radioactivity ratio) was 3.4 ± 2.5. The tissue uptake at 1 h (in vivo; 200 pmol, tumor uptake) was 10.2 ± 1.5 %ID/g, the tissue uptake at 4 h (in vivo; 200 pmol, tumor uptake) was 8.3 ± 1.1 %ID/g and the tissue uptake at 24 h (in vivo; 200 pmol, tumor uptake) was 3.1 ± 1.9 %ID/g. For the same compound, the tissue uptake at 1 h (in vivo; pancreatic uptake) was 10.1 ± 4.3 %ID/g, the tissue uptake at 1 h (in vivo; renal uptake) was 4.5 ± 1.4 %ID/g and the tissue to tissue ratio at 1 h (in vivo; tumor to kidney ratio) was 4.8 ± 2.2. For the same compound, the tissue to tissue ratio at 1 h (in vivo; tumor to pancreas radioactivity ratio) was 2.2 ± 0.8, the tissue uptake at 1 h (in vivo; tumor uptake) was 19.7 ± 3.5 %ID/g and the tissue uptake at 4 h (in vivo; tumor uptake) was 17.6 ± 5.1 %ID/g. The tissue uptake at 24 h (in vivo; tumor uptake) was 6.5 ± 3.3 %ID/g and the “uptake in the pancreas and the tumor with an excess of unlabeled SB3 (blocking)” value [5] was “significantly decreased”.
